In assay [1] the test system is TNFα production in rat whole blood. Description: TNFα production inhibitory action evaluation test (LPS stimulation ex vivo, ELISA). It is filed as cell-based. The note with it: 20 hours, 200 μM test compound solution 10 μL/well, DEX treated group = 100, read-out: TNFα production inhibitory ratio (% DEX). As to the method:
In order to evaluate an action of the present compound as a GR agonist, a TNFα production inhibitory action in rat whole blood after LPS stimulation ex vivo was investigated. For the measurement of the TNFα production amount, the ELISA method (manufactured by R&D Systems, Cat No. RTA00) was used, and a procedure was carried out according to the protocol attached thereto. Hereinafter, the specific method will be described.
LPS solution: LPS was dissolved in PBS(−) and diluted with RPMI 1640 to prepare an LPS solution with a concentration of 2 μg/mL.
After the test compound was dissolved in dimethylsulfoxide, the solution was diluted with PBS(−) to prepare 200 μM of a test compound solution. In addition, DEX was similarly dissolved to prepare 200 μM of a DEX solution, and a TNFα production inhibitory ratio of DEX was measured, and used for calculation of Efficacy (% DEX).
• 1) Blood was collected from 3 to 5 rats using an injection syringe treated with heparin from the abdominal aorta under isoflurane anesthesia. The rats confirmed death after lething the whole blood. • 2) The blood of 3 to 5 rats pooled in a 96-well round bottom culture plate was seeded at each 180 μL/well. • 3) It was cultured (37° C., 5% CO2, 95% air) for about 1 hour. • 4) The test compound solution was added each 10 μL/well, and cultured for 1 hour. • 5) LPS solution was added each 10 μL/well. • 6) The sample in which 2% dimethylsulfoxide-containing PBS(−) was added with each 10 μL/well in place of each test compound solution, and RPMI 1640 was added with each 10 μL/well in place of the LPS solution was made a negative control. • 7) The sample in which 2% dimethylsulfoxide-containing PBS(−) was added with each 10 μL/well in place of each test compound solution was made a positive control. • 8) After completion of 20 hours cultivation, the supernatant was recovered and the amount of TNFα released in the supernatant was measured by using an ELISA Kit. • 9) The TNFα production inhibitory ratio was calculated according to the following calculation formula. (Calculation of TNFα Production Inhibitory Ratio)
TNFα production inhibitory ratio (%) was calculated according to the following formula. TNFα production inhibitory ratio (%)=100×{1−(TNFα production amount of each test compound solution−average value of TNFα production amount of negative control group)/(average value of TNFα production amount of positive control group−average value of TNFα production amount of negative control group)}(%)
Further, a TNFα production inhibitory ratio (Efficacy (% DEX)) when the DEX treated group was made 100 was calculated. Efficacy (% DEX)=100×{(average value of TNFα production inhibitory ratio of each test compound solution)/(average value of TNFα production inhibitory ratio of DEX treated group)}(%)
A general note: ELISA stands for enzyme-linked immunosorbent assay.

The subject of assay [2] is IL-6 production in human corneal epithelium cell line (HCE-T). Description: IL-6 production inhibitory action evaluation test (LPS stimulation, HTRF). It is filed as cell-based. The conditions noted are these: 4 hours; for Emax: 100 μM test compound solution 10 μL/well, DEX treated group = 100, read-out: IL-6 production inhibitory ratio (% DEX); for IC50: IL-6 production inhibition. As to the method: To evaluate the action of the present compounds as a GR agonist, IL-6 production inhibitory action in human corneal epithelial cell line after LPS stimulation was examined The IL-6 production was measured by using the HTRF method (Cat No. 62IL6PEB manufactured by Cisbio Bioassays, Inc.) according to the attached protocol. The specific method is described below.
LPS solution: After dissolving LPS in PBS(−), the resulting solution was diluted with a culture solution, whereby an LPS solution with a 1 μg/mL concentration was prepared.
After dissolving the test compound in dimethylsulfoxide, the solution was diluted with a 10% FBS-DMEM/Ham's F12 medium, whereby a 100 μM of the test compound solution was prepared. […] In addition, DEX was similarly dissolved, whereby a 100 μM concentration of the DEX solution was prepared, and an IL-6 production inhibitory ratio of DEX was measured, and used for calculation of Efficacy (% DEX).
Used cells: human corneal epithelium cell line (HCE-T) (RIKEN, Institute of Physical and Chemical Research)
The cells continued to subculture according to this method were used for the test. (Test Method and Measurement Method) • 1) The subcultured HCE-T was recovered and the cells were seeded at 2.0×10^4 cells/0.1 mL/well in a 96-well flat bottom culture plate. • 2) After culturing overnight, medium the medium was removed and each 80 μL/well of 10%
FBS-DMEM/Ham's F12 medium was added. • 3) Test compound solution was added with each 10 μL/well. • 4) LPS solution was added with each 10 μL/well. • 5) The sample to which 1% dimethylsulfoxide-containing 10% FBS-DMEM/Ham's F12 medium was added with each 10 μL/well in place of each test compound solution, and 10% FBS-DMEM/Ham's F12 medium was added in place of the LPS solution was made a negative control. • 6) The sample in which 1% dimethylsulfoxide-containing 10% FBS-DMEM/Ham's F12 medium was added with each 10 μL/well in place of each test compound solution was made a positive control. • 7) After completion of 4 hours cultivation, the supernatant was recovered and the amount of IL-6 released in the supernatant was measured by using an HTRF human IL-6 Kit. • 8) The IL-6 production inhibitory ratio was calculated according to the following calculation formula. (Calculation of IL-6 Production Inhibitory Ratio)
The IL-6 production inhibitory ratio (%) was calculated by the following formula. IL-6 production inhibitory ratio (%)=100×{1−(IL-6 produced amount of each test compound solution−average value of IL-6 produced amount of negative control group)/(average value of IL-6 produced amount of positive control group−average value of IL-6 produced amount of negative control group)}(%)
Further, the IL-6 production inhibitory ratio (Efficacy (% DEX)) when the DEX treated group was made 100 was calculated. Efficacy (% DEX)=100×{(average value of IL-6 production inhibitory ratio of each test compound solution)/(average value of IL-6 production inhibitory ratio of DEX treated group)}(%)
In addition, IC50 was calculated according to a conventional method. IDBS XLfit4 was used for the calculation.
A general note: TR-FRET usually uses a lanthanide donor and a delayed reading to cut background.

Structures are written as SMILES. A value given as a limit tells only on which side of the number the result lay.

In the case of `COc1cc(OC[C@H](C)O)ccc1-c1ccc2c(c1COc1cc(F)ccc1C)N(C)C(=O)C(C)(C)N2` [Compound 1-1, (S)-8-(5-fluoro-2-methylphenoxymethyl)-7-[4-(2-hydroxypropyl)oxy-2-methoxy-phenyl]-1,3,3-trimethyl-3,4-dihydro-1H-quinoxalin-2-one], the Emax came out at 81% in assay [1] and 86% in assay [2].
The like results for `COc1cc(OC[C@@H](O)CCO)ccc1-c1ccc2c(c1COc1cc(F)ccc1C)N(C)C(=O)C(C)(C)N2` [Compound 2-1, (S)-7-[4-(2,4-dihydroxybutyl)oxy-2-methoxyphenyl]-8-(5-fluoro-2-methyl-phenoxymethyl)-1,3,3-trimethyl-3,4-dihydro-1H-quinoxalin-2-one] were, in that order, 97% and 82%.
In general, IC50 refers to the concentration at which inhibition is half-maximal. A lower IC50 goes with greater potency. With `COc1cc(OC[C@@H](O)CC#N)ccc1-c1ccc2c(c1COc1cc(F)ccc1C)N(C)C(=O)C(C)(C)N2` [Compound 5-2, (S)-7-[4-(3-cyano-2-hydroxypropyl)oxy-2-methoxyphenyl]-8-(5-fluoro-2-methyl-phenoxymethyl)-1,3,3-trimethyl-3,4-dihydro-1H-quinoxalin-2-one], the Emax in assay [1] and in assay [2] was more than 99% each time. The same molecule showed an IC50 in assay [2] of 13 nM.
For the molecule `COc1ccc(CO)cc1-c1ccc2c(c1COc1cc(F)ccc1C)N(C)C(=O)C(C)(C)N2` [Control compound B, 8-(5-fluoro-2-methylphenoxymethyl)-7-(5-hydroxymethyl-2-methoxyphenyl)-1,3,3-trimethyl-3,4-dihydro-1H-quinoxalin-2-one, reference compound], the Emax in assay [1] came out at 77%; in assay [2], 62%.
Consider `COc1ccc(O)cc1-c1ccc2c(c1COc1cc(F)ccc1C)N(C)C(=O)C(C)(C)N2` [Control compound C, 8-(5-fluoro-2-methylphenoxymethyl)-7-(5-hydroxy-2-methoxyphenyl)-1,3,3-trimethyl-3,4-dihydro-1H-quinoxalin-2-one], for which, in assay [2], the Emax worked out at 71% and the IC50 worked out at 93 nM.
As to `CCCC(=O)Oc1ccc(-c2ccc3c(c2COc2cc(F)ccc2C)N(C)C(=O)C(C)(C)N3)c(OC)c1` [Control compound D, 7-(4-butyryloxy-2-methoxyphenyl)-8-(5-fluoro-2-methylphenoxymethyl)-1,3,3-trimethyl-3,4-dihydro-1H-quinoxalin-2-one, reference compound], the Emax in assay [2] was found to be 69%.
Turning to `COc1ccc(-c2ccc3c(c2COc2cc(F)ccc2C)N(C)C(=O)C(C)(C)N3)c(OC)c1` [Control compound E, 7-(2,4-dimethoxyphenyl)-8-(5-fluoro-2-methyl-phenoxymethyl)-1,3,3-trimethyl-3,4-dihydro-1H-quinoxalin-2-one, reference compound], the Emax is 0% in assay [1] and 10% in assay [2].
Regarding `COCOc1ccc(-c2ccc3c(c2COc2cc(F)ccc2C)N(C)C(=O)C(C)(C)N3)c(OC)c1` [Control compound F, 8-(5-fluoro-2-methylphenoxymethyl)-7-(2-methoxy-4-methoxymethoxyphenyl)-1,3,3-trimethyl-3,4-dihydro-1H-quinoxalin-2-one, reference compound], the values for the Emax in assay [1] and in assay [2] were 69% and 62%, respectively.

For the origin of these results see patent US10189796B2, “[4-(1,3,3-trimethyl-2-oxo-3,4-dihydro-1H-quinoxalin-7-yl)phenoxy]ethyloxy compound or salt thereof” (SANTEN PHARMACEUTICAL CO., LTD., priority 2015, dated 2019).
